Experimental data: publication PMC12395308 (ACS Central Science, 2025)
≈ marks a conversion by molar mass, not a printed value. Each block holds one molecule with its values, some of them ahead of it.

Tests used:
[1] = Stomach homogenate conversion assay; type: in vitro ADME, mice; details: 50 μg/mL; for percentage of prodrug remaining after 20 h of incubation, stomach homogenate: ex vivo
[2] = Intestinal homogenate conversion assay; type: in vitro ADME, mice; details: 50 μg/mL; for percentage of prodrug remaining after 20 h of incubation, intestine homogenate: ex vivo
[3] = Lipophilicity (logD) by shake flask method
[4] = Aqueous stability in acidic and basic buffer (HPLC); details: post 24 h of incubation; for chemical stability, pH (3.0): percentage of parent remaining: acidic buffer; for chemical stability, pH (7.6): percentage of parent remaining: basic buffer
[5] = Bioconversion of prodrugs in plasma, ex vivo (mice); details: 200 μg/mL; for eAUC20m–20h in mice plasma, prodrug: 20 h ex vivo incubation
[6] = Bioconversion of prodrugs in plasma, ex vivo (human); details: 200 μg/mL; for eAUC20m–20h in human plasma, prodrug: 20 h ex vivo incubation
[7] = Chemical stability in neat DMSO (UV spectrophotometer); details: post 24 h of incubation
[8] = Complete pharmacokinetic analysis after a single oral dose; details: for concentration at 0.33 h / concentration at 1 h / concentration at 2 h / concentration at 4 h / concentration at 6 h / concentration at 24 h: Balb/C, mouse, plasma, po, 10 mg/kg of INH (prodrugs at molar equivalent); for plasma concentration of free INH (mean) / plasma concentration of released AcINH (mean) / plasma concentration of released INA (mean) / Vd, unchanged prodrug / plasma level of AcHz formed in vivo: single oral dose; for Vd, unchanged prodrug: molar equivalent of 10 mg/kg INH; for plasma level of AcHz formed in vivo: all time points 0.083–24 h
[9] = Aqueous solubility in Tris HCl buffer (pH 7.4), shake flask method; details: 37 °C, pH 7.4, aqueous buffer, thermodynamic from solid
[10] = In vivo plasma exposure after repetitive single oral dosing for 10 consecutive days; details: for eAUC20m–6h (AcHz): 10th dose, oral, molar equivalent of 10 mg/kg INH
[11] = Human liver microsomal stability analysis; details: 50 μM, 1 mg/mL microsomes, 1 mM NADPH
[12] = test system: pyridoxal and pyridoxal-5′-phosphate; assay: Quantification of pyridoxal and pyridoxal-5-phosphate in mice liver; details: repeat-dose study; INH 90 mg/kg, 1d 117.5 mg/kg
[13] = Comparative pharmacokinetic analysis after a single intravenous dose; details: single IV dose
[14] = Derivatization-based quantification of hydrazine in mice plasma using LC-MS
[15] = Comparative plasma exposure after a single oral dose at three incremental dose levels; details: oral 1mg/Kg
[16] = In vivo plasma exposure after a single oral dose (RACE-PK); details: single oral dose 10 mg/kg

eAUC0–20h in stomach homogenate, prodrug [1]: 691,560 ng·h/mL
percentage of prodrug remaining after 20 h of incubation, stomach homogenate [1]: 29%
eAUC0–20h in intestinal homogenate, prodrug [2]: 761,596 ng·h/mL
percentage of prodrug remaining after 20 h of incubation, intestine homogenate [2]: 43%
logD [3]: 1.1
chemical stability, pH (3.0): percentage of parent remaining [4]: 100.0%
chemical stability, pH (7.6): percentage of parent remaining [4]: 100.0%
eAUC20m–20h in mice plasma, prodrug [5]: 87 ± 85 ng·h/mL
eAUC20m–20h in human plasma, prodrug [6]: 465 ± 426 ng·h/mL
chemical stability, DMSO: percentage of parent remaining [7]: 100.0%
concentration at 0.33 h [8]: 6130 ng/mL
concentration at 1 h [8]: 433 ng/mL
concentration at 2 h [8]: 409 ng/mL
concentration at 4 h [8]: 884 ng/mL
concentration at 6 h [8]: 128 ng/mL
concentration at 24 h [8]: 120 ng/mL
plasma concentration of free INH (mean) ([8]; 4 h): BLQ
plasma concentration of released AcINH (mean) ([8]; 4 h): BLQ
plasma concentration of released INA (mean) ([8]; 4 h): BLQ
plasma concentration of free INH (mean) ([8]; 6 h): BLQ
plasma concentration of released AcINH (mean) ([8]; 6 h): BLQ
plasma concentration of released INA (mean) ([8]; 6 h): BLQ
plasma concentration of free INH (mean) ([8]; 24 h): BLQ
plasma concentration of released AcINH (mean) ([8]; 24 h): BLQ
plasma concentration of released INA (mean) ([8]; 24 h): BLQ
Vd, unchanged prodrug [8]: 2.899 ± 0.3 L/kg
plasma level of AcHz formed in vivo [8]: BLQ
solubility at 24 h ([9]; Tris HCl buffer): 0.4 mg/mL
eAUC20m–6h (AcHz) [10]: BLQ ^d
SMILES: Cl.O=C(NNC(=O)c1ccncc1)OCc1ccccc1 [prodrug 1h]

SMILES: NNC(=O)c1ccncc1 [INH, Isoniazid, reference compound]
percentage of 1d/INH remaining after 2 h of incubation, human liver microsomes [11]: 66%
logD [3]: -0.8
chemical stability, pH (3.0): percentage of parent remaining [4]: 100.0%
chemical stability, pH (7.6): percentage of parent remaining [4]: 100.0%
chemical stability, DMSO: percentage of parent remaining [7]: 100.0%
plasma concentration of released INA (mean) ([8]; 4 h): BLQ
plasma concentration of free INH (mean) ([8]; 6 h): BLQ
plasma concentration of released AcINH (mean) ([8]; 6 h): BLQ
plasma concentration of released INA (mean) ([8]; 6 h): BLQ
plasma concentration of free INH (mean) ([8]; 24 h): BLQ
plasma concentration of released AcINH (mean) ([8]; 24 h): BLQ
plasma concentration of released INA (mean) ([8]; 24 h): BLQ
plasma level of AcHz formed in vivo [8]: BLQ
solubility at 24 h [9]: 610 mg/mL (≈ 4450 mM)
liver tissue levels of pyridoxal and pyridoxal-5′-phosphate [12]: comparable
plasma concentration of released INA (mean) ([13]; 0.33 h): BLQ
plasma concentration of released INA (mean) ([13]; 1 h): BLQ
plasma concentration of released AcINH (mean) ([13]; 2 h): BLQ
plasma concentration of released INA (mean) ([13]; 2 h): BLQ
plasma concentration of released AcINH (mean) ([13]; 4 h): BLQ
plasma concentration of released INA (mean) ([13]; 4 h): BLQ
plasma concentration of released AcINH (mean) ([13]; 6 h): BLQ
plasma concentration of released INA (mean) ([13]; 6 h): BLQ
plasma concentration of released AcINH (mean) ([13]; 8 h): BLQ
plasma concentration of released INA (mean) ([13]; 8 h): BLQ
plasma concentration of released AcINH (mean) ([13]; 24 h): BLQ
plasma concentration of released INA (mean) ([13]; 24 h): BLQ
plasma concentration of in vivo released Hz ([14]; post 24hrs of 6th dose, repetitive oral dosing for six days): BLQ
plasma level of released Hz ([14]; single oral dose (10 mg/kg INH or equivalent), all time points 0.083–24 h): BLQ
eAUC20m–6h (AcHz) [10]: BLQ ^d
feed intake per cage ([10]; day 0, cage of n=3): 9 g
feed intake per cage ([10]; day 1, cage of n=3): 13 g
feed intake per cage ([10]; day 2, cage of n=3): 11 g
feed intake per cage ([10]; day 3, cage of n=3): 9 g
feed intake per cage ([10]; day 4, cage of n=3): 11.5 g
feed intake per cage ([10]; day 5, cage of n=3): 15.5 g
feed intake per cage ([10]; day 6, cage of n=3): 13.5 g
feed intake per cage ([10]; day 7, cage of n=3): 14 g
feed intake per cage ([10]; day 8, cage of n=3): 14 g
feed intake per cage ([10]; day 9, cage of n=3): 15 g
feed intake per cage ([10]; day 10, cage of n=3): 15 g
plasma concentration of INH (mean) ([15]; 2 h): BLQ
plasma concentration of INH (mean) ([15]; 6 h): BLQ

eAUC0–20h in stomach homogenate, prodrug [1]: 412,453 ng·h/mL
percentage of prodrug remaining after 20 h of incubation, stomach homogenate [1]: 1%
eAUC0–20h in intestinal homogenate, prodrug [2]: 908,764 ng·h/mL
percentage of prodrug remaining after 20 h of incubation, intestine homogenate [2]: 85%
logD [3]: -0.2
chemical stability, pH (3.0): percentage of parent remaining [4]: 100.0%
chemical stability, pH (7.6): percentage of parent remaining [4]: 100.0%
% of prodrug remaining at 20 h, mice plasma ([5]; 37 °C, ex vivo): 70.5%
eAUC20m–20h in mice plasma, prodrug [5]: 1650 ± 930 ng·h/mL
% of prodrug remaining at 20 h, human plasma ([6]; 37 °C, ex vivo): 40.1%
eAUC20m–20h in human plasma, prodrug [6]: 1418 ± 824 ng·h/mL
chemical stability, DMSO: percentage of parent remaining [7]: 100.0%
plasma concentration of AcINH at 20 min [16]: BLQ
plasma concentration of in vivo released free INH at 20 min [16]: BLQ
plasma eAUC20m–120m (AcINH) ([16]; n=3): BLQ ^d
plasma eAUC20m–120m (INH) ([16]; n=3): BLQ ^d
concentration at 0.33 h [8]: 148000 ng/mL
concentration at 1 h [8]: 63200 ng/mL
concentration at 2 h [8]: 31400 ng/mL
concentration at 4 h [8]: 1400 ng/mL
concentration at 6 h [8]: 571 ng/mL
concentration at 24 h [8]: 208 ng/mL
plasma concentration of free INH (mean) ([8]; 1 h): BLQ
plasma concentration of released AcINH (mean) ([8]; 1 h): BLQ
plasma concentration of free INH (mean) ([8]; 2 h): BLQ
plasma concentration of released AcINH (mean) ([8]; 2 h): BLQ
plasma concentration of free INH (mean) ([8]; 4 h): BLQ
plasma concentration of released AcINH (mean) ([8]; 4 h): BLQ
plasma concentration of released INA (mean) ([8]; 4 h): BLQ
plasma concentration of free INH (mean) ([8]; 6 h): BLQ
plasma concentration of released AcINH (mean) ([8]; 6 h): BLQ
plasma concentration of released INA (mean) ([8]; 6 h): BLQ
plasma concentration of free INH (mean) ([8]; 24 h): BLQ
plasma concentration of released AcINH (mean) ([8]; 24 h): BLQ
plasma concentration of released INA (mean) ([8]; 24 h): BLQ
Vd, unchanged prodrug [8]: 0.077 ± 0.004 L/kg
plasma level of AcHz formed in vivo [8]: BLQ
solubility at 24 h ([9]; Tris HCl buffer): 213 mg/mL
eAUC20m–6h (AcHz) [10]: BLQ ^d
SMILES: COC(=O)NNC(=O)c1ccncc1.Cl [prodrug 1a]
